Where two headings read alike, the source gives them in different places.

Assay [1] relates to Puccinia graminis (f. sp. tritici Race 15B-2). Briefly: whole plant or invertebrate. Type of assay: in vivo. To be noted: Puccinia graminis, 336 h, read-out: % Control WSR.
Assay [2] concerns Piricularia oryzae. In words: whole plant or invertebrate. Type of assay: in vivo. To be noted: Pyricularia oryzae; for pest or weed control at 100 ppm: read-out: % Control RB, application rate 100 ppm.
The test system of assay [3] is Erysiphe graminis (f. sp. tritici). In words: whole plant or invertebrate. Type of assay: in vivo. To be noted: Blumeria graminis; read-out: % Control WPM.
Assay [4] relates to Pseudoperonospora cubensis. In words: whole plant or invertebrate. Particulars: Pseudoperonospora cubensis, in Cucumis sativus, 168 h; read-out: % Control CDM. Type of assay: in vivo.
Assay [5] has as its system Pellicularia filamentosa (f. sp. sasiki). Briefly: whole plant or invertebrate. Type of assay: in vivo. To be noted: 120 h; read-out: % Control RSB.
Assay [6] relates to Phytophthora infestans. Briefly: whole plant or invertebrate. Type of assay: in vivo. To be noted: Phytophthora infestans, in Solanum lycopersicum, 96 h.
Assay [7] concerns Pseudomonas fluorescens. In words: Alternate Minimum Inhibitory Concentrations Test (Table 4), Ps.fl. Type of assay: cell-based. To be noted: Pseudomonas fluorescens; Table 4 alternate test; 250 ppm to 0.8 ppm in TSB, 72 hours, 30° C.; read-out: MIC Ps.fl. The essentials: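 Broth microdilution MIC in TSB: compound (from acetone stock) serially diluted 1:1 from 250 ppm to 0.8 ppm, inoculated with diluted 24 h culture. After 3 days at 30 °C, the lowest concentration with no growth was recorded as MIC.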

Assay [8] deals with Puccinia recondita (f. sp. tritici Races PKB and PLD). Briefly: whole plant or invertebrate. Type of assay: in vivo. To be noted: Puccinia recondita, 240 h; read-out: % Control WLR.
Setting [9] is: read-out: % Control RB, application rate 200 ppm.

As a reminder, the MIC is the lowest concentration found to suppress growth. With `CCCCCCCCNC(=O)/C=C\SC(=O)CCC(=O)OCC` [Compound 52, N-octyl-cis-3-[(3-ethoxycarbonylpropanoyl)thio]acrylamide], the figures for the pest or weed control at 200 ppm in assay [1] and in assay [2] (setting [9]) were 90% and 0%, respectively. Further, the pest or weed control at 100 ppm in assay [3] was 0%; in assay [5], 0%; in assay [6] (read-out: % Control TLB) it was 80%; in assay [8], 0%. In addition, in assay [4], the pest or weed control at 50 ppm is 70%. For the same compound, the MIC in assay [7] was more than 250 µg/mL.
For `CCCCCCCCNC(=O)/C=C\SC(=O)C(C)(C)CCl` [Compound 44, N-octyl-cis-3-[(2,2-dimethyl-3-chloropropanoyl)thio]acrylamide], in assay [1], the pest or weed control at 100 ppm was 0%. Moreover, the pest or weed control at 200 ppm turned out to be 0% in assay [2] (setting [9]); 0% in assay [3]; 0% in assay [4]; 0% in assay [5]; 90% in assay [6] (read-out: % Control TLB); 0% in assay [8]. Also, the MIC in assay [7] was more than 250 µg/mL.
Take `CCCCCCCCNC(=O)/C=C\SC(=O)COc1ccccc1` [Compound 26, N-octyl-cis-3-(phenoxyacetylthio)acrylamide]: the pest or weed control at 100 ppm in assay [1] stood at 90%; in assay [2] it was 80%; in assay [3], 0%; in assay [5], 0%; in assay [6] (read-out: % Control TLB), 90%; in assay [8] it was 0%. Further, in assay [4], the pest or weed control at 50 ppm was found to be 85%. Also, the MIC in assay [7] was more than 250 µg/mL.
Regarding `CCCCCCCCNC(=O)/C=C\SC(=O)c1ccccc1Br` [Compound 5, N-octyl-cis-3-[(2-bromobenzoyl)thio]acrylamide], the pest or weed control at 200 ppm in assay [1] was 75%. Moreover, in assay [2] (read-out: % Control RB, application rate 25 ppm), the pest or weed control at 25 ppm was 80%. The pest or weed control at 100 ppm is 0% in assay [3], 0% in assay [5], 90% in assay [6] (read-out: % Control TLB) and 0% in assay [8]. For the same compound, the pest or weed control at 50 ppm in assay [4] is 50%. In assay [7], the MIC was more than 250 µg/mL.
Turning to `CCCCCCCCNC(=O)/C=C\SC(=O)c1ccc([N+](=O)[O-])o1` [Compound 17, N-octyl-cis-3-[(5-nitro-2-furoyl)thio]acrylamide], the pest or weed control at 200 ppm in assay [1] is 95%. Further, the pest or weed control at 100 ppm came to 80% in assay [2]; 0% in assay [3]; 0% in assay [5]; 90% in assay [6] (read-out: % Control TLB); 0% in assay [8]. In assay [4], the pest or weed control at 50 ppm is 50%. For the same compound, in assay [7], the MIC is more than 250 µg/mL.
As for `CCCCCCCCNC(=O)/C=C\SC(=O)c1ccc2ccccc2c1` [Compound 56, N-octyl-cis-3-[(2-naphthanoyl)thio]acrylamide], the pest or weed control at 200 ppm in assay [1] came out at 75%; in assay [2] (setting [9]) it was 0%; in assay [3] it was 0%; in assay [6] (read-out: % Control TLB), 80%; in assay [8], 0%. The pest or weed control at 12 ppm in assay [4] was 50%. Further, the pest or weed control at 50 ppm in assay [5] was determined as 80%. Further, in assay [7], the MIC is more than 250 µg/mL.
Turning to `CCCCCCCCNC(=O)/C=C\SC(=O)CCC(=O)OC` [Compound 51, N-octyl-cis-3-[(3-methoxycarbonylpropanoyl)thio]acrylamide], the pest or weed control at 200 ppm in assay [1] turned out to be 90%; in assay [2] (setting [9]) it was 0%. The pest or weed control at 100 ppm came to 0% in assay [3], 80% in assay [6] (read-out: % Control TLB) and 0% in assay [8]. Moreover, the pest or weed control at 50 ppm in assay [4] came to 85%. Also, the pest or weed control at 25 ppm in assay [5] came out at 90%. In addition, the minimum inhibitory concentration (MIC) in assay [7] is more than 250 µg/mL.
In the case of `CCCCCCCCNC(=O)/C=C\SC(=O)/C=C/c1ccc([N+](=O)[O-])cc1` [Compound 96, N-octyl-cis-3-[(trans-3-(4-nitrophenyl)propenoyl)thio]acrylamide], in assay [1], the pest or weed control at 100 ppm came out at 0%. Besides, the pest or weed control at 200 ppm in assay [2] (read-out: % Control RB) is 95%; in assay [3], 75%; in assay [4], 95%; in assay [5], 50%; in assay [6] (read-out: % Control TLB, application rate 200 ppm), 0%. Moreover, in assay [7], the MIC is more than 250 µg/mL. Moreover, the pest or weed control at 50 ppm in assay [8] stood at 0%.
Turning to `CCCCCCCCNC(=O)/C=C\SC(=O)CCCCl` [Compound 29, N-octyl-cis-3-[(4-chlorobutanoyl)thio]acrylamide], the pest or weed control at 200 ppm in assay [1] and in assay [2] (setting [9]) was 75% throughout. Also, the pest or weed control at 100 ppm was 0% in assay [3], 0% in assay [5], 90% in assay [6] (read-out: % Control TLB) and 0% in assay [8]. In addition, the pest or weed control at 50 ppm in assay [4] stood at 85%. Further, the MIC in assay [7] was more than 250 µg/mL.
As to `CCCCCCCCNC(=O)/C=C\SC(=O)c1cccc(OC)c1[N+](=O)[O-]` [Compound 98, N-octyl-cis-3-[(2-nitro-3-methoxybenzoyl)thio]acrylamide], the pest or weed control at 100 ppm in assay [1] is 0%. For the same compound, the pest or weed control at 200 ppm in assay [2] (read-out: % Control RB) was 99%; in assay [4], 50%; in assay [5] it was 0%; in assay [6] (read-out: % Control TLB), 90%; in assay [8], 50%. Moreover, the pest or weed control at 50 ppm in assay [3] came out at 0%. For the same compound, in assay [7], the MIC was more than 250 µg/mL.
On to `CCCCCCCCNC(=O)/C=C\SC(=O)c1cccc(CCl)c1` [Compound 22, N-octyl-cis-3-[(3-(chloromethyl)benzoyl)thio]acrylamide], for which, in assay [1], the pest or weed control at 200 ppm was 75%. Besides, the pest or weed control at 100 ppm in assay [2], in assay [3], in assay [5] and in assay [8] was 0% each time. The pest or weed control at 50 ppm in assay [4] is 99%. Besides, in assay [6] (read-out: % Control TLB, application rate 25 ppm), the pest or weed control at 25 ppm worked out at 95%. Moreover, the MIC in assay [7] is more than 250 µg/mL.
Consider `CCCCCCCCNC(=O)/C=C\SC(=O)c1ccc(OC)cc1` [Compound 16, N-octyl-cis-3-[(4-methoxybenzoyl)thio]acrylamide], for which the pest or weed control at 100 ppm came to 75% in assay [1]; 0% in assay [3]; 0% in assay [5]; 90% in assay [6] (read-out: % Control TLB); 75% in assay [8]. In addition, the pest or weed control at 25 ppm in assay [2] (read-out: % Control RB) is 100%. Also, in assay [4], the pest or weed control at 12 ppm is 50%. Also, the MIC in assay [7] is more than 250 µg/mL.
Turning to `CCCCCCCCNC(=O)/C=C\SC(=O)c1cccnc1` [Compound 55, N-octyl-cis-3-[(3-pyridine)carbonylthio]acrylamide], the pest or weed control at 200 ppm in assay [1] was found to be 90%; in assay [2] (setting [9]) it was 0%. The pest or weed control at 100 ppm in assay [3] is 50%; in assay [5] it was 0%; in assay [6] (read-out: % Control TLB, application rate 100 ppm), 95%; in assay [8], 0%. Moreover, the pest or weed control at 12 ppm in assay [4] came to 70%. For the same compound, the MIC in assay [7] was more than 250 µg/mL.

The values above are taken from US5300672A (priority 1992, dated 1994).
